From patent US20090227602A1, “COMPOSITIONS AND TREATMENTS FOR INHIBITING KINASE AND/OR HMG-COA REDUCTASE” (priority 2005, published 2009)
Where a name gives a salt, the structure may show the parent alone. Read-outs that look alike come from different tables or passages of the source.

Columns and labels:
[1] = system: lipopolysaccharide-stimulated release of TNFα from human peripheral blood mononuclear cells (PBMC); assay: Whole cell LPS-stimulated TNF-α release assay; type: cell-based; conditions: read-out: TNFα Release IC50
Protocol: (§1) The biological activities of compounds of the present invention were measured in assays which include: • 1) Inhibition of rat liver HMG-CoA reductase. Further details on the assay are present in Heller, R. A.; Gould, R. G. Biochem. Biophys. Research Commun. 1973, 50, 859 and Kubo, M.; Strott, C. A.; Endocrinology 1987, 120, 214. • 2) Inhibition of recombinant human p38αMAPK • 3) Inhibition of lipopolysaccharide (LPS)-stimulated release of tumor necrosis factor alpha (TNFα) from human peripheral blood mononuclear cells (PBMC).
Whole Cell LPS-Stimulated TNF-α Release Assay: The procedure as described in Welker et al., Int. Arch. Allergy and Immunol. 109:110-115 (1996) was followed. Briefly, a candidate compound and/or vehicle was preincubated with human peripheral blood mononuclear leukocytes (PBML, 5×10^5/ml) cells in AIM-V medium pH 7.4 for 2 hours. Lipopolysaccharide (LPS, 25 ng/ml) was added to stimulate the cells, which was incubated overnight at 37° C. TNF-α cytokine levels in the conditioned medium was then quantitated using a sandwich ELISA kit.

[2] = target: T1, recombinant human p38α MAPK (Homo sapiens, UniProt Q16539); assay: Human p38α MAP kinase inhibition assay (cell-free); type: biochemical; conditions: MBP substrate, 100 μM ATP
T1 construct: purchased UBI 14-251; host or cells: E. coli
T1 sequence (Q16539 whole entry): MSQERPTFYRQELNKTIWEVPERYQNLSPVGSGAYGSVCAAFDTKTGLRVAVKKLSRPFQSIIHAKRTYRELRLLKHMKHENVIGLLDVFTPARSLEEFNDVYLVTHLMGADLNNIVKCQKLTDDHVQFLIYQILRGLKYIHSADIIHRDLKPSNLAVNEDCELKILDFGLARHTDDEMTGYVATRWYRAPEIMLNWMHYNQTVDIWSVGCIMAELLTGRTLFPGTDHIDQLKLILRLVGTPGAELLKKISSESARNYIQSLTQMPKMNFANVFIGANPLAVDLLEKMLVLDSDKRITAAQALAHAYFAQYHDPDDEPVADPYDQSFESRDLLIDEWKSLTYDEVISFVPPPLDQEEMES
Protocol: as §1
Human p38αMAP Kinase Inhibition Assay: In vitro cell-free p38αMAP kinase inhibition assays were conducted by the method as described in Clerk et al., FEBS Lett., 426:93-96 (1998) for a number of lactones in formulas I/IIa/IIb. Briefly, human recombinant p38α protein kinase expressed in E. coli (UBI #14-251) was used. Myelin basic protein (MBP, UBI #13-110) was employed as substrate, and microtiter plate wells were coated with MBP (0.01 mg/ml) overnight at 4° C. Candidate compound and/or vehicle was preincubated with 0.075 μg/mL enzyme in modified HEPES buffer pH 7.4 at 25° C. for 15 minutes. The reaction was initiated by addition of 100 μM ATP and allowed to proceed for another 60 minutes. The reaction was terminated by aspirating the solution. Phosphorylated MBP was detected by incubation with a mouse monoclonal IgG2a anti-phosphoMBP antibody. Bound anti-phosphoMBP antibody was quantitated by incubation with a HRP conjugated goat anti-mouse IgG. The protein kinase activity was proportional to the readings of optical density at 405 nm resulting from reaction with an ABTS Microwell Peroxidase Substrate System.

[3] = target: T2, rat liver hydroxymethylglutaryl-CoA reductase (Rattus norvegicus, UniProt P51639); assay: Inhibition of rat liver HMG-CoA reductase; type: biochemical; conditions: rat liver HMG-CoA reductase activity inhibited by 50%; read-out: HMG-CoA R IC50
T2 sequence (P51639 1-887): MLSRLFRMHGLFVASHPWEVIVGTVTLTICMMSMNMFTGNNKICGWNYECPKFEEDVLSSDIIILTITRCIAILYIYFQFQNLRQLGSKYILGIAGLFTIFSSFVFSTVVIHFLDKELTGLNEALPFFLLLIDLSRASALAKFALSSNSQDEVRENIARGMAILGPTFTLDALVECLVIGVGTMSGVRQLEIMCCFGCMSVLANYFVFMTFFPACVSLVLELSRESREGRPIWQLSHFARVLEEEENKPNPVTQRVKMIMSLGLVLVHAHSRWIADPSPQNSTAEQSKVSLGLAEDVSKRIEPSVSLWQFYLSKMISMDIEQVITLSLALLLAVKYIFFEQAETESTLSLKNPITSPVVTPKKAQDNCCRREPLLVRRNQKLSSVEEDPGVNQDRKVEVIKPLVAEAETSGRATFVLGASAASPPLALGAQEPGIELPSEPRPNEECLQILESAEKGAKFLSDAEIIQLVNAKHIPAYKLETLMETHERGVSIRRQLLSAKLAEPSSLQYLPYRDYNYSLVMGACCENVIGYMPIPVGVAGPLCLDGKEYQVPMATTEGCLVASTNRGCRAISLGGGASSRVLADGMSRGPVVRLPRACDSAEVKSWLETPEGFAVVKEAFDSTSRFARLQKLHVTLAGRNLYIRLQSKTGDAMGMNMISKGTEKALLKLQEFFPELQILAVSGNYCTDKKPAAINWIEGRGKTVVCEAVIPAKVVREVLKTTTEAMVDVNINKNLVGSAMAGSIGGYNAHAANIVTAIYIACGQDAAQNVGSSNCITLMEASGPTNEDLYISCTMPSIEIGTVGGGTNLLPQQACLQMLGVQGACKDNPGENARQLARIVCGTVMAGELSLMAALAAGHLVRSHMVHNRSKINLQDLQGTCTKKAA
Protocol: as §1

Row | Structure (SMILES) | IC50 [2] | IC50 [3] | IC50 ([1]; LPS-stimulated human PBMC) | IC50 ([1]; Homo sapiens, PBMC)
1 | CC(C)c1nc(-c2ccc(F)cc2)c(-c2ccnc(Nc3ccccc3)n2)n1CC[C@@H]1C[C@@H](O)CC(=O)O1 [Example 24, (4R,6R)-6-(2-(4-(4-fluorophenyl)-2-isopropyl-5-(2-(phenylamino)pyrimidin-4-yl)-1H-imidazol-1-yl)ethyl)-4-hydroxytetrahydro-2H-pyran-2-one] | 110 nM |  | < 3000 nM | 
2 | CC(C)c1nc(-c2ccc(F)cc2)c(-c2ccnc(Nc3ccccc3)n2)n1CC[C@@H](O)C[C@@H](O)CC(=O)O [Example 25, (3R,5R)-7-(4-(4-fluorophenyl)-2-isopropyl-5-(2-(phenylamino)pyrimidin-4-yl)-1H-imidazol-1-yl)-3,5-dihydroxyheptanoic acid sodium salt] | < 100 nM | 98 nM | 9700 nM | 
3 | O=C1C[C@H](O)C[C@@H](CCn2c(-c3ccccc3)nc(-c3ccc(F)cc3)c2-c2ccncn2)O1 [Example 40, (4R,6R)-6-(2-(4-(4-fluorophenyl)-2-phenyl-5-(pyrimidin-4-yl)-1H-imidazol-1-yl)ethyl)-4-hydroxytetrahydro-2H-pyran-2-one] | 1400 nM |  | 26000 nM | 
4 | CC(C)c1nc(-c2ccc(F)cc2)c(-c2ccnc(Nc3ccccc3)n2)n1/C=C/[C@@H]1C[C@@H](O)CC(=O)O1 (racemic) [Example 29, (4R,6S) and (4S,6R)-6-((E)-2-(4-(4-fluorophenyl)-2-isopropyl-5-(2-(phenylamino)pyrimidin-4-yl)-1H-imidazol-1-yl)vinyl)-4-hydroxytetrahydro-2H-pyran-2-one] | < 100 nM |  | 19000 nM | 
5 | O=C(O)C[C@H](O)C[C@H](O)CCn1c(-c2ccccc2)nc(-c2ccc(F)cc2)c1-c1ccncn1 [Example 39, (3R,5R)-7-(4-(4-fluorophenyl)-2-phenyl-5-(pyrimidin-4-yl)-1H-imidazol-1-yl)-3,5-dihydroxyheptanoic acid calcium salt] | 14000 nM | > 1000 nM |  | > 300000 nM

The next lines start with results.

Row | IC50 [2] | IC50 [3] | Structure (SMILES) | IC50 ([1]; LPS-stimulated human PBMC) | IC50 ([1]; Homo sapiens, PBMC)
6 | 6000 nM | 11 nM | CC(C)(C)c1nc(-c2ccc(F)cc2)c(-c2ccncc2)n1/C=C/[C@@H](O)C[C@@H](O)CC(=O)O (racemic) [Example 33, (3R,5S,E) and (3S,5R,E)-7-(2-tert-butyl-4-(4-fluorophenyl)-5-(pyridin-4-yl)-1H-imidazol-1-yl)-3,5-dihydroxyhept-6-enoic acid sodium salt] | 230000 nM | 
7 | 270 nM | 4.8 nM | CC(C)c1nc(-c2ccc(F)cc2)c(-c2ccnc(Nc3ccccc3)n2)n1/C=C/[C@@H](O)C[C@@H](O)CC(=O)O (racemic) [Example 28, (3R,5S,E) and (3S,5R,E)-7-(4-(4-fluorophenyl)-2-isopropyl-5-(2-(phenylamino)pyrimidin-4-yl)-1H-imidazol-1-yl)-3,5-dihydroxyhept-6-enoic acid sodium salt] | 9700 nM | 
8 | 1800 nM |  | CC(C)(C)c1nc(-c2ccc(F)cc2)c(-c2ccncc2)n1/C=C/[C@@H]1C[C@@H](O)CC(=O)O1 (racemic) [Example 34, (4R,6S) and (4S,6R)-6-((E)-2-(2-tert-butyl-4-(4-fluorophenyl)-5-(pyridin-4-yl)-1H-imidazol-1-yl)vinyl)-4-hydroxytetrahydro-2H-pyran-2-one] | 190000 nM | 
